Experimental data from patent US8785457B2 (Cellzome Limited, priority 2009, dated 2014).

Experiments:
[1] = system: cytokine levels (TNFα, IL-2, IFNγ and IL-4); test: Anti-CD3 induced cytokine release in the mouse; format: in vivo; settings: 100 mg/kg p.o. 30 minutes before anti-CD3, blood 90 minutes after anti-CD3, compared to control group 2
Description: In this mouse model, T cells and NK cells were activated in situ by the intraperitoneal (i.p.) injection of an anti-CD3 antibody into mice that had been pre-treated for 30 minutes with certain compounds of the invention (100 mg/kg po administration). Blood samples were collected 90 minutes after anti-CD3 injection. Plasma samples were prepared and the cytokine levels (Tumor Necrosis factor alpha (TNFα), Interleukin-2 (IL-2), Interferon-gamma (IFNγ) and Interleukin-4 (IL-4)) were measured using a Cytometric Bead Array method.
A single dose of test compound was administered p.o. 30 minutes before anti-CD3 injection. 90 minutes after anti-CD3 injection blood samples were collected for cytokine analysis (approximately 400 μl whole blood anti-coagulated with Na-heparin) and stored frozen until use.
The cytokine measurement was done using the mouse Cytometric Bead Array (CBA) Th1/Th2 kit (BD Biosciences, San Diego, Calif., USA; catalogue number 551287) according to the manufacturer's instruction with the following modifications: all reagents were downscaled by a factor of 2 and the mixture of plasma, beads and detection reagents was done in 96-U-bottom plates. Standards and samples were acquired on a FACSCalibur® instrument (Becton Dickinson) using an HTS plate loader. Data were analysed with the CBA Software provided by Becton Dickinson which draws standard curves and converts mean fluorescence values into concentration values (pg/ml).
Animals: male C57BL/6J mice, 9 weeks old (Janvier, Le Genest St Isle, France).
Test compounds were dosed orally (p.o.) at 100 mg/kg (vehicle: 0.5% CMC, application volume 10 ml/kg).
Anti-CD3 antibody (BD Bioscience, catalogue number 553057): 200 μl of a 10 μg/ml solution in PBS were applied i.p. (2 μg per mouse).

[2] = system: S6RP serine-240/244 phosphorylation; test: In vitro Phospho-S6 cellular assay (pS6RP S240/244) in HEK293T/17 cells; format: cell-based; settings: Homo sapiens, 2 hours, read-out: pS6 IC50
Summary of the method: (§1)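 Compounds were tested at eight concentrations on adhered HEK293T/17 cells for 2 h at 37 °C (2% FCS, 0.1% DMSO), at 80,000 cells/well for pAkt S473 and 40,000 for pS6RP S240/244. Lysates were captured on phospho-specific antibody MSD plates with Sulfo-Tag detection. Values came from nonlinear variable-slope regression.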

[3] = target: T1, PI3 Kgamma (PI3 Kg) (Homo sapiens, UniProt P48736); test: kinobeads assay, PI3Kgamma; format: binding; settings: kinobeads assay, Table 6; read-out: Inhibition values (IC50) PI3Kg
T1 construct: endogenous in cells; host or cells: cell lysate
T1 sequence (P48736 whole entry): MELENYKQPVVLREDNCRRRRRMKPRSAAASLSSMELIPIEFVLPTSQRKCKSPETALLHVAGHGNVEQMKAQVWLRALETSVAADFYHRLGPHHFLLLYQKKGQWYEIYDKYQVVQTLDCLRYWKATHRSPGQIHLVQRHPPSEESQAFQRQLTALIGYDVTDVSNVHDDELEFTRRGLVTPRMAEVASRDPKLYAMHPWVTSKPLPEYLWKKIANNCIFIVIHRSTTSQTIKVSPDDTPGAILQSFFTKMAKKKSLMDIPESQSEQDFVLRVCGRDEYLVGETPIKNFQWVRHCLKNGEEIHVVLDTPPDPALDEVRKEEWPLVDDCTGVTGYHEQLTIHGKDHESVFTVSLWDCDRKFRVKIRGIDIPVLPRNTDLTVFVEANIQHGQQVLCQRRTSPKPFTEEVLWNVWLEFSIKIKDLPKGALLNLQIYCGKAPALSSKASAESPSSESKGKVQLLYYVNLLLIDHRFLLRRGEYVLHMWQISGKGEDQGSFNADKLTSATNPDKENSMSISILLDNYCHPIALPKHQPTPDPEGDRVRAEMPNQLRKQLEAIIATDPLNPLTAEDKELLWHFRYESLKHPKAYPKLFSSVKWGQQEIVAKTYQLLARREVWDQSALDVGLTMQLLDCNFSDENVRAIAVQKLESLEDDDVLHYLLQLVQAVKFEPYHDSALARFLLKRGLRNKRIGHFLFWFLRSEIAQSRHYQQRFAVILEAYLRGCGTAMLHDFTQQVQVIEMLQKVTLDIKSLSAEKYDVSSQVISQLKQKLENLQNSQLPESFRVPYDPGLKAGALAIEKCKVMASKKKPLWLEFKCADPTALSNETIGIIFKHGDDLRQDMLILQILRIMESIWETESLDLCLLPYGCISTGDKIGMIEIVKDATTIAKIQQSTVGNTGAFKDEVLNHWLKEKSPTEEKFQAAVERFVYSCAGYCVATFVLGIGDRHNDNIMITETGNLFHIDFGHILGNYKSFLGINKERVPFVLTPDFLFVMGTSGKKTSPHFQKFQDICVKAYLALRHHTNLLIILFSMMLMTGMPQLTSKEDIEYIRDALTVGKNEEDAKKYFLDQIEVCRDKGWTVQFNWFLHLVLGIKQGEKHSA
Summary of the method: (§2)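 Cell lysate aliquots are incubated with compound over a concentration range and with an affinity matrix of immobilized phenylmorpholin-chromen ligand. Beads are then removed, bound proteins eluted, and each kinase is quantified by multiplexed immunodetection to derive IC50 values.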

[4] = system: Akt serine-473 phosphorylation; test: In vitro Phospho-Akt cellular assay (pAkt S473) in HEK293T/17 cells; format: cell-based; settings: Homo sapiens, 2 hours
Summary of the method: as §1

[5] = target: T2, PI3 Kbeta (PI3 Kb) (Homo sapiens, UniProt P42338); test: kinobeads assay, PI3Kbeta; format: binding; settings: kinobeads assay, Table 6; read-out: Inhibition values (IC50) PI3Kb
T2 construct: endogenous in cells; host or cells: cell lysate
T2 sequence (P42338 whole entry): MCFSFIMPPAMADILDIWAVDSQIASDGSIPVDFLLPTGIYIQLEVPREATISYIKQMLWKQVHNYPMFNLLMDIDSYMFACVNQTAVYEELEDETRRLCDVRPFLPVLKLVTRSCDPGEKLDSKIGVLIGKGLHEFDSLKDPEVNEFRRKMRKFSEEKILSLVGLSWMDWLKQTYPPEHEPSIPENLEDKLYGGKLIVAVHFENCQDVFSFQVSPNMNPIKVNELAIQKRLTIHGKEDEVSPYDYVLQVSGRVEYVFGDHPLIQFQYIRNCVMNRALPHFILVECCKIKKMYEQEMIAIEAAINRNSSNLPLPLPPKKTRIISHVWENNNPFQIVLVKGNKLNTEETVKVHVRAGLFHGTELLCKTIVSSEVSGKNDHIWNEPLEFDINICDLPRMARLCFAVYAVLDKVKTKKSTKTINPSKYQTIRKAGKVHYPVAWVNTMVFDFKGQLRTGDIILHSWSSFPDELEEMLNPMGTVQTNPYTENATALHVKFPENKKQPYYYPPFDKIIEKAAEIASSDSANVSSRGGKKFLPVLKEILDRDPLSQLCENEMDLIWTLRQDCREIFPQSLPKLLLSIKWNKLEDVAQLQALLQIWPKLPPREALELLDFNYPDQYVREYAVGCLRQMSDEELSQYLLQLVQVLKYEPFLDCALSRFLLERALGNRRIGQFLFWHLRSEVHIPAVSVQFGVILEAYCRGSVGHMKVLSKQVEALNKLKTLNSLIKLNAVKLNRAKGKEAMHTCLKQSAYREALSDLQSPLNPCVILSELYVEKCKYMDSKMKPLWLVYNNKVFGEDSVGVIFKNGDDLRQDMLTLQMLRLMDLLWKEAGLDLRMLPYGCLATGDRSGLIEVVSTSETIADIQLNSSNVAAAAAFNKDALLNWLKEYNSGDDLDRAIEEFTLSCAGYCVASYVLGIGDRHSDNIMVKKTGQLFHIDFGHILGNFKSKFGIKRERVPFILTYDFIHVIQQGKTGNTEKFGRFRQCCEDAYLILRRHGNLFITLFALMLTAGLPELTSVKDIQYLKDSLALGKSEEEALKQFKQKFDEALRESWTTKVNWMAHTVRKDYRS
T2 sequence (P27986 whole entry partner): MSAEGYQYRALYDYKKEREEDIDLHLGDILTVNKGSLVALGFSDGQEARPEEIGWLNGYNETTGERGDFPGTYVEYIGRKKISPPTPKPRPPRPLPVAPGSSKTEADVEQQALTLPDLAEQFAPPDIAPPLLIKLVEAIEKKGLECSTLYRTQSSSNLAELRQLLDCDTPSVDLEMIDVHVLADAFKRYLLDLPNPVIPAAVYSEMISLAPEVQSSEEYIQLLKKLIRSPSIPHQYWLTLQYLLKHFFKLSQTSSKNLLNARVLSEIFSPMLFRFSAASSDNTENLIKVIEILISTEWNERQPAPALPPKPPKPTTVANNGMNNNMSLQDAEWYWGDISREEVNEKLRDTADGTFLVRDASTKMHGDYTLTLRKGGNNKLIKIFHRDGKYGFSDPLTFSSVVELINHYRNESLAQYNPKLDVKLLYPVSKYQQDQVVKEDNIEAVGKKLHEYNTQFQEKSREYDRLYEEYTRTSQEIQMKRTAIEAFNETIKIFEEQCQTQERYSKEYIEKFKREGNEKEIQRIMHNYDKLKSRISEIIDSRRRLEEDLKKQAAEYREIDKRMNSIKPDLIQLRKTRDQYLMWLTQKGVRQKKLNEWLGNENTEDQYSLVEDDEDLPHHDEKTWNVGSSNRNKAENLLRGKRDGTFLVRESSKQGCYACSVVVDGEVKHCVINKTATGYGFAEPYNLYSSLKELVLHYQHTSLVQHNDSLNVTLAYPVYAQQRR
Summary of the method: as §2

Row | SMILES | IC50 [2] [µM] | IC50 [3] [µM] | IC50 [4] [µM] | IC50 [5] [µM] | IFNγ plasma levels [1] | IL-2 plasma levels [1] | IL-4 plasma levels [1] | TNFα plasma levels [1]
1 | CCOC(=O)N1Cc2nc(-c3ccc(NC(=O)NC4CC4)cc3F)nc(N3CCOC[C@@H]3C)c2C1 [Example 131, (S)-ethyl 2-(4-(3-cyclopropylureido)-2-fluorophenyl)-4-(3-methylmorpholino)-5H-pyrrolo[3,4-d]pyrimidine-6(7H)-carboxylate] | 0.099 | > 10 | 0.049 | > 10 | reduction | reduction | reduction | reduction
2 | CCNC(=O)Nc1ccc(-c2nc3c(c(N4CCOC[C@@H]4C)n2)CN(CC(C)C)C3)cc1 [Example 66, (S)-1-ethyl-3-(4-(6-isobutyl-4-(3-methylmorpholino)-6,7-dihydro-5H-pyrrolo[3,4-d]pyrimidin-2-yl)phenyl)urea] | 0.074 | > 10 | 0.054 | > 10 | – | – | – | –
3 | CCNC(=O)Nc1ccc(-c2nc3c(c(N4CCOC[C@@H]4C)n2)CCN(C)C3)c(F)c1 [Example 110, (S)-1-ethyl-3-(3-fluoro-4-(7-methyl-4-(3-methylmorpholino)-5,6,7,8-tetrahydropyrido[3,4-d]pyrimidin-2-yl)phenyl)urea] | 0.192 | > 10 | 0.118 | > 10 | – | – | – | –

Continued, in another order:

Row | IC50 [2] [µM] | IC50 [3] [µM] | IC50 [4] [µM] | IC50 [5] [µM] | SMILES | IFNγ plasma levels [1] | IL-2 plasma levels [1] | IL-4 plasma levels [1] | TNFα plasma levels [1]
4 | 0.083 | > 10 | 0.037 | > 10 | CCNC(=O)Nc1ccc(-c2nc3c(c(N4CCOC[C@@H]4C)n2)CN(C(=O)OCC)C3)cc1 [Example 90, (S)-ethyl 2-(4-(3-ethylureido)phenyl)-4-(3-methylmorpholino)-5H-pyrrolo[3,4-d]pyrimidine-6(7H)-carboxylate] | – | – | – | –
5 | 0.14 | > 10 | 0.07 | > 10 | COC(=O)N1CCc2c(nc(-c3ccc(NC(=O)NC4CC4)cc3)nc2N2CCOC[C@@H]2C)C1 [Example 83, (S)-methyl 2-(4-(3-cyclopropylureido)phenyl)-4-(3-methylmorpholino)-5,6-dihydropyrido[3,4-d]pyrimidine-7(8H)-carboxylate] | – | – | – | –
6 | 0.035 | > 10 | 0.021 | > 10 | CCOC(=O)N1CCc2c(nc(-c3ccc(NC(=O)NC4CC4)cc3)nc2N2CCOC[C@@H]2C)C1 [Example 78, (S)-ethyl 2-(4-(3-cyclopropylureido)phenyl)-4-(3-methylmorpholino)-5,6-dihydropyrido[3,4-d]pyrimidine-7(8H)-carboxylate] | – | – | – | –
